{
  "source": "patent US7183278B1",
  "about": "(priority 1998, dated 2007)",
  "data": [
    {"tested_on": "rice blast fungi (Pyricularia oryze)", "experiment": "whole plant or invertebrate", "assay_type": "in vivo", "conditions": "144 h, read-out: protective value", "units": {"pest or weed control at 100 ppm": "%"}, "values": [
      {"smiles": "COc1ccnc(C(=O)Nc2ccc(Cl)cc2)c1O", "note": "[Example 61, 3-Hydroxy-4-methoxy-4′-chloropicolinanilide]", "pest or weed control at 100 ppm": "80 to 100"},
      {"smiles": "COc1ccnc(C(=O)NC2CCCCCC2)c1O", "note": "[Example 57, 3-Hydroxy-4-methoxy-N-cycloheptylpicolinamide]", "pest or weed control at 100 ppm": "80 to 100"},
      {"smiles": "COc1ccnc(C(=O)Nc2ccc(OC(F)(F)F)cc2)c1O", "note": "[Example 116, 3-Hydroxy-4-methoxy-4′-trifluoromethoxypicolinanilide]", "pest or weed control at 100 ppm": "80 to 100"},
      {"smiles": "COc1ccnc(C(=O)Nc2ccc(C(F)(F)F)cc2)c1O", "note": "[Example 115, 3-Hydroxy-4-methoxy-4′-trifluoromethylpicolinanilide]", "pest or weed control at 100 ppm": "80 to 100"},
      {"smiles": "CCC(C)NC(=O)c1nccc(OC)c1O", "note": "(stereo not shown) [Example 82, 3-Hydroxy-4-methoxy-N-(sec-butyl)picolinamide]", "pest or weed control at 100 ppm": "80 to 100"},
      {"smiles": "COc1ccnc(C(=O)Nc2ccc(C)cc2)c1O", "note": "[Example 123, 3-Hydroxy-4-methoxy-4′-methylpicolinanilide]", "pest or weed control at 100 ppm": "80 to 100"},
      {"smiles": "COc1ccnc(C(=O)Nc2ccc(OCc3ccccc3)cc2)c1O", "note": "[Example 39, 3-Hydroxy-4-methoxy-4′-benzyloxypicolinanilide]", "pest or weed control at 100 ppm": "80 to 100"},
      {"smiles": "COc1ccnc(C(=O)NC23CC4CC(CC(C4)C2)C3)c1O", "note": "[Example 45, 3-Hydroxy-4-methoxy-N-(1-adamantyl)picolinamide]", "pest or weed control at 100 ppm": "80 to 100"},
      {"smiles": "COc1ccnc(C(=O)NC(C)c2ccccc2)c1O", "note": "(stereo not shown) [Example 69, 3-Hydroxy-4-methoxy-N-(1′-phenylethyl)picolinamide]", "pest or weed control at 100 ppm": "80 to 100"},
      {"smiles": "COc1ccnc(C(=O)NC2CCCC2)c1O", "note": "[Example 79, 3-Hydroxy-4-methoxy-N-cyclopentylpicolinamide]", "pest or weed control at 100 ppm": "80 to 100"},
      {"smiles": "COc1ccnc(C(=O)Nc2ccc(CC(C)(C)C)cc2)c1O", "note": "[Example 125, 3-Hydroxy-4-methoxy-4′-neopentylpicolinanilide]", "pest or weed control at 100 ppm": "80 to 100"},
      {"smiles": "COc1ccnc(C(=O)Nc2ccc(C)cc2F)c1O", "note": "[Example 121, 3-Hydroxy-4-methoxy-2′-fluoro-4′-methylpicolin-anilide]", "pest or weed control at 100 ppm": "80 to 100"},
      {"smiles": "COc1ccnc(C(=O)Nc2ccc(C(C)(C)C)cc2)c1O", "note": "[Example 114, 3-Hydroxy-4-methoxy-4′-t-butylpicolinanilide]", "pest or weed control at 100 ppm": "80 to 100"},
      {"smiles": "COc1ccnc(C(=O)NC2CCCCC2)c1O", "note": "[Example 59, 3-Hydroxy-4-methoxy-N-cyclohexylpicolinamide]", "pest or weed control at 100 ppm": "80 to 100"},
      {"smiles": "COc1ccnc(C(=O)Nc2ccc(Oc3ccccc3)c(Cl)c2)c1O", "note": "[Example 21, 3-Hydroxy-4-methoxy-3′-chloro-4′-phenoxypicolinanilide]", "pest or weed control at 100 ppm": "80 to 100"},
      {"smiles": "COc1ccnc(C(=O)NCCC2CCCCC2)c1O", "note": "[Example 63, 3-Hydroxy-4-methoxy-N-(2′-cyclohexylethyl)picolinamide]", "pest or weed control at 100 ppm": "80 to 100"},
      {"smiles": "COc1ccnc(C(=O)Nc2ccc(C3CCCCC3)cc2)c1O", "note": "[Example 49, 3-Hydroxy-4-methoxy-4′-cyclohexylpicolinanilide]", "pest or weed control at 100 ppm": "80 to 100"},
      {"smiles": "COc1ccnc(C(=O)Nc2ccc(Oc3ccccc3)c(C(F)(F)F)c2)c1O", "note": "[Example 22, 3-Hydroxy-4-methoxy-4′-phenoxy-3′-trifluoromethylpicolinanilide]", "pest or weed control at 100 ppm": "80 to 100"},
      {"smiles": "COc1ccnc(C(=O)Nc2ccc(Oc3ccccc3)cc2)c1O", "note": "[Example 9, 3-Hydroxy-4-methoxy-4′-phenoxypicolinanilide]", "pest or weed control at 100 ppm": "80 to 100"},
      {"smiles": "COc1ccnc(C(=O)Nc2ccc(Cc3ccccc3)cc2)c1O", "note": "[Example 13, 3-Hydroxy-4-methoxy-4′-benzylpicolinanilide]", "pest or weed control at 100 ppm": "80 to 100"},
      {"smiles": "COc1ccnc(C(=O)Nc2cc(F)cc(F)c2)c1O", "note": "[Example 122, 3-Hydroxy-4-methoxy-3′,5′-difluoropicolinanilide]", "pest or weed control at 100 ppm": "80 to 100"},
      {"smiles": "COc1ccnc(C(=O)NC2CCCCCCC2)c1O", "note": "[Example 43, 3-Hydroxy-4-methoxy-N-cyclooctylpicolinamide]", "pest or weed control at 100 ppm": "80 to 100"},
      {"smiles": "COc1ccnc(C(=O)NCCC2=CCCCC2)c1O", "note": "[Example 53, 3-Hydroxy-4-methoxy-N-(2′-(1-cyclohexenyl)ethyl)picolinamide]", "pest or weed control at 100 ppm": "80 to 100"},
      {"smiles": "COc1ccnc(C(=O)NC2CCC(C)CC2)c1O", "note": "(stereo not shown) [Example 78, 3-Hydroxy-4-methoxy-N-(4′-methylcyclohexyl)picolinamide]", "pest or weed control at 100 ppm": "80 to 100"},
      {"smiles": "COc1ccnc(C(=O)Nc2ccc(Oc3ccccc3)c(C)c2)c1O", "note": "[Example 23, 3-Hydroxy-4-methoxy-3′-methyl-4′-phenoxypicolinanilide]", "pest or weed control at 100 ppm": "80 to 100"},
      {"smiles": "COc1ccnc(C(=O)Nc2ccccn2)c1O", "note": "[Example 126, 3-Hydroxy-4-methoxy-N-(2-pyridyl)picolinamide]", "pest or weed control at 100 ppm": "80 to 100"},
      {"smiles": "COc1ccnc(C(=O)Nc2c(C)cc(Oc3ccccc3)cc2C)c1O", "note": "[Example 55, 3-Hydroxy-4-methoxy-2′,6′-dimethyl-4′-phenoxypicolinanilide]", "pest or weed control at 100 ppm": "80 to 100"},
      {"smiles": "COc1ccnc(C(=O)Nc2cc(C(C)(C)C)cc(C(C)(C)C)c2)c1O", "note": "[Example 38, 3-Hydroxy-4-methoxy-3′,5′-di-t-butylpicolinanilide]", "pest or weed control at 100 ppm": "80 to 100"},
      {"smiles": "COc1ccnc(C(=O)NC2CCC2)c1O", "note": "[Example 81, 3-Hydroxy-4-methoxy-N-cyclobutylpicolinamide]", "pest or weed control at 100 ppm": "80 to 100"},
      {"smiles": "COc1ccnc(C(=O)NC(C)(C)c2ccccc2)c1O", "note": "[Example 70, 3-Hydroxy-4-methoxy-N-(1′-methyl-1′-phenylethyl)picolinamide]", "pest or weed control at 100 ppm": "80 to 100"},
      {"smiles": "O=C(Nc1ccc(Oc2ccccc2)cc1)c1ncccc1O", "note": "[Example 1, 3-Hydroxy-4′-phenoxypicolinanilide]", "pest or weed control at 100 ppm": "80 to 100"},
      {"smiles": "COc1ccnc(C(=O)NC2CCCCCCCCCCC2)c1O", "note": "[Example 42, 3-Hydroxy-4-methoxy-N-cyclododecylpicolinamide]", "pest or weed control at 100 ppm": "80 to 100"},
      {"smiles": "COc1ccnc(C(=O)NCc2ccc(Oc3ccccc3)cc2)c1O", "note": "[Example 71, 3-Hydroxy-4-methoxy-N-(4′-phenoxybenzyl)picolinamide]", "pest or weed control at 100 ppm": "80 to 100"},
      {"smiles": "COc1ccnc(C(=O)Nc2ccc3c(c2)OCCO3)c1O", "note": "[Example 51, 3-Hydroxy-4-methoxy-(3′,4′-ethylenedioxy)picolinanilide]", "pest or weed control at 100 ppm": "80 to 100"},
      {"smiles": "COc1ccnc(C(=O)Nc2ccc(F)cc2)c1O", "note": "[Example 120, 3-Hydroxy-4-methoxy-4′-fluoropicolinanilide]", "pest or weed control at 100 ppm": "80 to 100"},
      {"smiles": "CCCCCCCCNC(=O)c1nccc(OC)c1O", "note": "[Example 86, 3-Hydroxy-4-methoxy-N-(n-octyl)picolinamide]", "pest or weed control at 100 ppm": "80 to 100"},
      {"smiles": "COc1ccnc(C(=O)Nc2ccccc2Oc2ccccc2)c1O", "note": "[Example 12, 3-Hydroxy-4-methoxy-2′-phenoxypicolinanilide]", "pest or weed control at 100 ppm": "80 to 100"},
      {"smiles": "COc1ccnc(C(=O)NC(C)c2cccc3ccccc23)c1O", "note": "(stereo not shown) [Example 30, 3-Hydroxy-4-methoxy-N-(1′-(1-naphthyl)ethyl)picolinamide]", "pest or weed control at 100 ppm": "80 to 100"},
      {"smiles": "COc1ccnc(C(=O)Nc2cccc(Oc3ccccc3)c2)c1O", "note": "[Example 11, 3-Hydroxy-4-methoxy-3′-phenoxypicolinanilide]", "pest or weed control at 100 ppm": "80 to 100"},
      {"smiles": "CCCCCCNC(=O)c1nccc(OC)c1O", "note": "[Example 83, 3-Hydroxy-4-methoxy-N-(n-hexyl)picolinamide]", "pest or weed control at 100 ppm": "80 to 100"},
      {"smiles": "COc1ccnc(C(=O)NCC2CCCCC2)c1O", "note": "[Example 75, 3-Hydroxy-4-methoxy-N-(cyclohexylmethyl)picolinamide]", "pest or weed control at 100 ppm": "80 to 100"},
      {"smiles": "COc1ccnc(C(=O)NCCC(C)(C)C)c1O", "note": "[Example 88, 3-Hydroxy-4-methoxy-N-(3′,3′-dimethylbutyl)picolinamide]", "pest or weed control at 100 ppm": "80 to 100"},
      {"smiles": "COc1ccnc(C(=O)Nc2ccccc2)c1O", "note": "[Example 60, 3-Hydroxy-4-methoxypicolinanilide]", "pest or weed control at 100 ppm": "80 to 100"}
    ]}
  ]
}
